Reference: patent US12662465B2, “EGFR inhibitors” (Blueprint Medicines Corporation, priority 2021, dated 2026)
Read-outs that look alike come from different tables or passages of the source.

Key:
EGFR L858R = biological target: T1, EGFR L858R (Homo sapiens, UniProt P00533, L858R); test: Biochemical EGFR inhibition assay (Caliper mobility shift), EGFR L858R; conditions: read-out: Enz EGFR_L858R IC50
T1 construct: purchased SignalChem E10-122BG

EGFR (d746-750) = biological target: T2, EGFR (d746-750) (Homo sapiens, UniProt P00533, DEL746-750); test: Biochemical EGFR inhibition assay (Caliper mobility shift), EGFR (d746-750); conditions: read-out: Enz EGFR_Exon19-del746-750 IC50
T2 construct: purchased SignalChem E10-122JG

[1] = biological target: intracellular phosphorylation of EGFR (Tyr1068) in PC-9 cells (Ex19Del) (Homo sapiens, UniProt P00533, DEL746-750); test: PC-9 pEGFR AlphaLISA assay; type: cell-based; conditions: 4 hours compound incubation, read-out: Ext pEGFR_PC-9 Ex19Del IC50
[2] = 1.0 mM ATP or ATP Km, room temperature (25° C.)

T2 sequence (P00533 with tags, fused parts or gaps DEL746-750 limits assumed): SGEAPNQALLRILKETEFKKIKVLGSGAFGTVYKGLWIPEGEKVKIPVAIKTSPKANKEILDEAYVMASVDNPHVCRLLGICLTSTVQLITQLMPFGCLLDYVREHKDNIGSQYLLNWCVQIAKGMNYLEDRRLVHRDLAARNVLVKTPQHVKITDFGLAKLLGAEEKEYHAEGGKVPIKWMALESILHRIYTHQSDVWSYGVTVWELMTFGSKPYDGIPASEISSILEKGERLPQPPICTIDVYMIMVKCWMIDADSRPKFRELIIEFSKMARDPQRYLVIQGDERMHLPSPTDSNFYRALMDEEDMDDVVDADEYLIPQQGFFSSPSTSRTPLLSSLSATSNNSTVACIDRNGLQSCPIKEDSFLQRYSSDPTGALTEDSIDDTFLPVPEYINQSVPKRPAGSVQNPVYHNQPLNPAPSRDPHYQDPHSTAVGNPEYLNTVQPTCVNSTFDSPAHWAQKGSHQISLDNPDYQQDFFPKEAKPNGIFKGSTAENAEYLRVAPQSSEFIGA
T1 sequence (P00533 25-1210 L858R): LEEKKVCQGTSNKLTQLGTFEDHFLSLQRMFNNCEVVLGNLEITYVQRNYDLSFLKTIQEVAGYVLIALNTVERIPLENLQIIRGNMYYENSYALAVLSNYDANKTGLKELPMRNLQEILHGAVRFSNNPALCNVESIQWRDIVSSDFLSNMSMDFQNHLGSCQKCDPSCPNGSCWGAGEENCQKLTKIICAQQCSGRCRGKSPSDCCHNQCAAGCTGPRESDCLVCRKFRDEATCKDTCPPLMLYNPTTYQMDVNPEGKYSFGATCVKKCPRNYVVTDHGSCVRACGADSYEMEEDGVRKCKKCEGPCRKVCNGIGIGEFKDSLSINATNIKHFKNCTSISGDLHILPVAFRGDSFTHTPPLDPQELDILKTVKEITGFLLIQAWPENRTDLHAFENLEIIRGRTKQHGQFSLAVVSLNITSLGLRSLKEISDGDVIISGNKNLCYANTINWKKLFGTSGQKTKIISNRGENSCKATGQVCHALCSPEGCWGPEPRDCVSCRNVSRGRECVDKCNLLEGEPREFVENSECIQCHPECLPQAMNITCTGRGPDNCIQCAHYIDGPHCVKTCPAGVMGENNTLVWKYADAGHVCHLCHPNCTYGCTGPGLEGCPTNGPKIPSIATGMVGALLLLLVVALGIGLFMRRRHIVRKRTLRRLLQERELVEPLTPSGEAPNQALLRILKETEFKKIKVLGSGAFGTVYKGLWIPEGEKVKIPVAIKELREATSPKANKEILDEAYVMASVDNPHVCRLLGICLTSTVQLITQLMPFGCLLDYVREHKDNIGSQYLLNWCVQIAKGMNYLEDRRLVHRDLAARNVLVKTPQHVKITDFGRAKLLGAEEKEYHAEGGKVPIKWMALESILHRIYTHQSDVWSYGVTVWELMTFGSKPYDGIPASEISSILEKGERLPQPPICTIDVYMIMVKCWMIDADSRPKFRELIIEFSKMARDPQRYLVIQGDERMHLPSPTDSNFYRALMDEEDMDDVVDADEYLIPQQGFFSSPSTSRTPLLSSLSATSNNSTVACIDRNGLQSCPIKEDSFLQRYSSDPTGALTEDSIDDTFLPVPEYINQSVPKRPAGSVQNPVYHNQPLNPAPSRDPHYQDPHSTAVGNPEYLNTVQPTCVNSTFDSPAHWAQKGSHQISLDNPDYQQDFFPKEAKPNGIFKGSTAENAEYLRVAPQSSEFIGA
intracellular phosphorylation of EGFR (Tyr1068) in PC-9 cells (Ex19Del), sequence (P00533 with tags, fused parts or gaps DEL746-750): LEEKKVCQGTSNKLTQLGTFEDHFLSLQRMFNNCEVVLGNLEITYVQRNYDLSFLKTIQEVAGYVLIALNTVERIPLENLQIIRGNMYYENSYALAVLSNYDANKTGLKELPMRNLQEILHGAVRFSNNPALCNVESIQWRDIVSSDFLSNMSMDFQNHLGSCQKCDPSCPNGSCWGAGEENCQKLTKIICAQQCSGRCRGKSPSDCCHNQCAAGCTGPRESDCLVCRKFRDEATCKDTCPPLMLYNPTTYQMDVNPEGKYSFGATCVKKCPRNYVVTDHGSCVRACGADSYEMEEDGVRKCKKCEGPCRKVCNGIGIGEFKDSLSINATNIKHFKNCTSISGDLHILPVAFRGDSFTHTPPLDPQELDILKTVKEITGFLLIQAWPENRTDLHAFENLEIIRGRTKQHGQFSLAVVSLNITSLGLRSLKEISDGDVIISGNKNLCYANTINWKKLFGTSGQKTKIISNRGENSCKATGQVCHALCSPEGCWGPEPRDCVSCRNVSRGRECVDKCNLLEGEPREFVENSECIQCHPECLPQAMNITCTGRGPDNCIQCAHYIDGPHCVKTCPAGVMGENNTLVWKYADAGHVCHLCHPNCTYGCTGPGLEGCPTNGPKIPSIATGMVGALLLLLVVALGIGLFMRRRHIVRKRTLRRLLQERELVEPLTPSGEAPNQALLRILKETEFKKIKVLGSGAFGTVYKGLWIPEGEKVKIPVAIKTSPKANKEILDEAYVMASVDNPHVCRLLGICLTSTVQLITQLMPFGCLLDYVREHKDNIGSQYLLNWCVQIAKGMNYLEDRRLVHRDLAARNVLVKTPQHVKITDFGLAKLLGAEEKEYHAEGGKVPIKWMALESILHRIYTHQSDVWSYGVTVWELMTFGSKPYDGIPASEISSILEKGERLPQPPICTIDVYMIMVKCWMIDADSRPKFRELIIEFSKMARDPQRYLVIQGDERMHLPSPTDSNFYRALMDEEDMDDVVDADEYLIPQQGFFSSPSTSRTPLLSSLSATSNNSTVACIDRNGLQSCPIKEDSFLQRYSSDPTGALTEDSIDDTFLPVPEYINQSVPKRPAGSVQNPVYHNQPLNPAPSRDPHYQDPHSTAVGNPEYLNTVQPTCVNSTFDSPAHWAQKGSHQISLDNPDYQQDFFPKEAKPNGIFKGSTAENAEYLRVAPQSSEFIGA

SMILES | IC50 (EGFR L858R) | IC50 (EGFR (d746-750)) | IC50 [1] | IC50 (EGFR L858R; [2]) | IC50 (EGFR (d746-750); [2])
CC(CN(C)C)Oc1cc(N2CC3CC(C2)O3)cc2ncnc(Nc3ccc4ncccc4c3)c12 (single isomer, unassigned) [Example 67, 7-(6-oxa-3-azabicyclo[3.1.1]heptan-3-yl)-5-(((R)-1-(dimethylamino)propan-2-yl)oxy)-N-(quinolin-6-yl)quinazolin-4-amine or 7-(6-oxa-3-azabicyclo[3.1.1]heptan-3-yl)-5-(((S)-1-(dimethylamino)propan-2-yl)oxy)-N-(quinolin-6-yl)quinazolin-4-amine] | 10.1 to 50 nM | 10.1 to 50 nM | 10.1 to 50 nM | – | –
C[C@@H](CN(C)C)Oc1cc(N2CC3CC(C2)O3)cc2ncnc(Nc3ccc4ncccc4c3)c12 (single isomer, unassigned) [Example 68, 7-(6-oxa-3-azabicyclo[3.1.1]heptan-3-yl)-5-(((S)-1-(dimethylamino)propan-2-yl)oxy)-N-(quinolin-6-yl)quinazolin-4-amine or 7-(6-oxa-3-azabicyclo[3.1.1]heptan-3-yl)-5-(((R)-1-(dimethylamino)propan-2-yl)oxy)-N-(quinolin-6-yl)quinazolin-4-amine] | – | – | ≤ 10 nM | 10.1 to 50 nM | < 10 nM
CO[C@@H]1CCN(c2cc(O[C@H](C)C3COC3)c3c(Nc4ccc5ncccc5c4F)ncnc3c2)C1 (single isomer, unassigned) [Example 85a, N-(5-fluoroquinolin-6-yl)-7-((R)-3-methoxypyrrolidin-1-yl)-5-((R)-1-(oxetan-3-yl)ethoxy)quinazolin-4-amine or N-(5-fluoroquinolin-6-yl)-7-((S)-3-methoxypyrrolidin-1-yl)-5-((R)-1-(oxetan-3-yl)ethoxy)quinazolin-4-amine] | – | – | ≤ 10 nM | < 10 nM | < 10 nM
CO[C@H]1CCN(c2cc(O[C@H](C)C3COC3)c3c(Nc4ccc5ncccc5c4F)ncnc3c2)C1 (single isomer, unassigned) [Example 85b, N-(5-fluoroquinolin-6-yl)-7-((S)-3-methoxypyrrolidin-1-yl)-5-((R)-1-(oxetan-3-yl)ethoxy)quinazolin-4-amine or N-(5-fluoroquinolin-6-yl)-7-((R)-3-methoxypyrrolidin-1-yl)-5-((R)-1-(oxetan-3-yl)ethoxy)quinazolin-4-amine] | – | – | ≤ 10 nM | < 10 nM | < 10 nM
CO[C@@H]1CCN(c2cc(O[C@H](C)CN(C)C)c3c(Nc4ccc5ncccc5c4F)ncnc3c2)C1 (single isomer, unassigned) [Example 87a, 5-(((R)-1-(dimethylamino)propan-2-yl)oxy)-N-(5-fluoroquinolin-6-yl)-7-((R)-3-methoxypyrrolidin-1-yl)quinazolin-4-amine or 5-(((R)-1-(dimethylamino)propan-2-yl)oxy)-N-(5-fluoroquinolin-6-yl)-7-((S)-3-methoxypyrrolidin-1-yl)quinazolin-4-amine] | – | – | ≤ 10 nM | < 10 nM | < 10 nM
CO[C@H]1CCN(c2cc(O[C@H](C)CN(C)C)c3c(Nc4ccc5ncccc5c4F)ncnc3c2)C1 (single isomer, unassigned) [Example 87b, 5-(((R)-1-(dimethylamino)propan-2-yl)oxy)-N-(5-fluoroquinolin-6-yl)-7-((S)-3-methoxypyrrolidin-1-yl)quinazolin-4-amine or 5-(((R)-1-(dimethylamino)propan-2-yl)oxy)-N-(5-fluoroquinolin-6-yl)-7-((R)-3-methoxypyrrolidin-1-yl)quinazolin-4-amine] | – | – | ≤ 10 nM | < 10 nM | < 10 nM
C[C@H](CN(C)C)Oc1cc(N2CCO[C@@H](C(F)F)C2)cc2ncnc(Nc3ccc4ncccc4c3F)c12 (single isomer, unassigned) [Example 99a, 7-((S)-2-(difluoromethyl)morpholino)-5-(((R)-1-(dimethylamino)propan-2-yl)oxy)-N-(5-fluoroquinolin-6-yl) or 7-((R)-2-(difluoromethyl)morpholino)-5-(((R)-1-(dimethylamino)propan-2-yl)oxy)-N-(5-fluoroquinolin-6-yl)quinazolin-4-amine] | – | – | ≤ 10 nM | < 10 nM | < 10 nM
C[C@H](CN(C)C)Oc1cc(N2CCO[C@@H](C(F)F)C2)cc2ncnc(Nc3ccc4ncccc4c3F)c12 (single isomer, unassigned) [Example 99b, 7-((R)-2-(difluoromethyl)morpholino)-5-(((R)-1-(dimethylamino)propan-2-yl)oxy)-N-(5-fluoroquinolin-6-yl)quinazolin-4-amine or 7-((S)-2-(difluoromethyl)morpholino)-5-(((R)-1-(dimethylamino)propan-2-yl)oxy)-N-(5-fluoroquinolin-6-yl)] | – | – | 10.1 to 50 nM | 10.1 to 50 nM | < 10 nM
C[C@@H](Oc1cc(-c2cnn([C@@H](C)CO)c2)cc2ncnc(Nc3ccc4ncccc4c3F)c12)C1COC1 (single isomer, unassigned) [Example 121, (S)-2-(4-(4-((5-fluoroquinolin-6-yl)amino)-5-((R)-1-(oxetan-3-yl)ethoxy)quinazolin-7-yl)-1H-pyrazol-1-yl)propan-1-ol or (R)-2-(4-(4-((5-fluoroquinolin-6-yl)amino)-5-((R)-1-(oxetan-3-yl)ethoxy)quinazolin-7-yl)-1H-pyrazol-1-yl)propan-1-ol] | – | – | ≤ 10 nM | < 10 nM | < 10 nM
C[C@@H](Oc1cc(-c2cnn(C)c2)cc2ncnc(Nc3ccc4ncccc4c3F)c12)[C@@H]1COCCN1 (single isomer, unassigned) [Example 123] | – | – | ≤ 10 nM | < 10 nM | < 10 nM
C[C@@H](Oc1cc(-c2cnn(C)c2)cc2ncnc(Nc3ccc4ncccc4c3F)c12)[C@@H]1COCCN1 (single isomer, unassigned) [Example 124] | – | – | 10.1 to 50 nM | < 10 nM | < 10 nM
C[C@@H](Oc1cc(-c2cnn(C)c2)cc2ncnc(Nc3ccc4ncccc4c3F)c12)[C@@H]1COCCN1C (single isomer, unassigned) [Example 125] | – | – | 10.1 to 50 nM | < 10 nM | < 10 nM
C[C@@H](Oc1cc(-c2cnn(C)c2)cc2ncnc(Nc3ccc4ncccc4c3F)c12)[C@@H]1COCCN1C (single isomer, unassigned) [Example 126] | – | – | ≤ 10 nM | < 10 nM | < 10 nM
C[C@H](CN(C)C)Oc1cc(-c2cnn(C)c2)cc2c1c(Nc1ccc3ncccc3c1F)nc[n+]2[O-] (single isomer, unassigned) [Example 127] | < 10 nM | < 10 nM | 10.1 to 50 nM | – | –
C[C@H](CN(C)C)Oc1cc(-c2cnn(C)c2)cc2nc[n+]([O-])c(Nc3ccc4ncccc4c3F)c12 (single isomer, unassigned) [Example 128] | 10.1 to 50 nM | 10.1 to 50 nM | > 50.1 nM | – | –
C[C@H](CN(C)C)Oc1cc(-c2cnn(C)c2)cc2ncnc(Nc3ccc4c(ccc[n+]4[O-])c3F)c12 (single isomer, unassigned) [Example 129] | 10.1 to 50 nM | < 10 nM | 10.1 to 50 nM | – | –
C[C@H](Oc1cc(-c2cnn(C)c2)cc2ncnc(Nc3ccc4ncccc4c3F)c12)[C@@H](C)O (single isomer, unassigned) [Example 132, (2R,3S)-3-((4-((5-fluoroquinolin-6-yl)amino)-7-(1-methyl-1H-pyrazol-4-yl)quinazolin-5-yl)oxy)butan-2-ol or (2S,3R)-3-((4-((5-fluoroquinolin-6-yl)amino)-7-(1-methyl-1H-pyrazol-4-yl)quinazolin-5-yl)oxy)butan-2-ol] | – | – | ≤ 10 nM | < 10 nM | < 10 nM
C[C@H](Oc1cc(-c2cnn(C)c2)cc2ncnc(Nc3ccc4ncccc4c3F)c12)C(=O)N(C)C (single isomer, unassigned) [Example 137, (S)-2-((4-((5-fluoroquinolin-6-yl)amino)-7-(1-methyl-1H-pyrazol-4-yl)quinazolin-5-yl)oxy)-N,N-dimethylpropanamide or (R)-2-((4-((5-fluoroquinolin-6-yl)amino)-7-(1-methyl-1H-pyrazol-4-yl)quinazolin-5-yl)oxy)-N,N-dimethylpropanamide] | – | – | ≤ 10 nM | < 10 nM | < 10 nM
C[C@H](Oc1cc(-c2cnn(C)c2)cc2ncnc(Nc3ccc4ncccc4c3F)c12)C(=O)N1CCOCC1 (single isomer, unassigned) [Example 139, (S)-2-((4-((5-fluoroquinolin-6-yl)amino)-7-(1-methyl-1H-pyrazol-4-yl)quinazolin-5-yl)oxy)-1-morpholinopropan-1-one or (R)-2-((4-((5-fluoroquinolin-6-yl)amino)-7-(1-methyl-1H-pyrazol-4-yl)quinazolin-5-yl)oxy)-1-morpholinopropan-1-one] | – | – | ≤ 10 nM | < 10 nM | < 10 nM
CN(C)[C@@H]1CC[C@H]1Oc1cc(-c2cnn(C)c2)cc2ncnc(Nc3ccc4ncccc4c3F)c12 (single isomer, unassigned) [Example 141, 5-((1R,2R)-2-(dimethylamino)cyclobutoxy)-N-(5-fluoroquinolin-6-yl)-7-(1-methyl-1H-pyrazol-4-yl)quinazolin-4-amine or 5-((1S,2S)-2-(dimethylamino)cyclobutoxy)-N-(5-fluoroquinolin-6-yl)-7-(1-methyl-1H-pyrazol-4-yl)quinazolin-4-amine] | – | – | > 50.1 nM | 10.1 to 50 nM | 10.1 to 50 nM
